{
  "source": "patent US5627035A",
  "about": "“Peptides that block human immunodeficiency virus and methods of use thereof” (Syntello Vaccine Development AB, priority 1995, dated 1997)",
  "key": {"[1]": {"system": "herpes simplex virus type I (HSV-1) strain McIntyre", "test": "Yield inhibition assay of HSV-1 in GMK cells", "format": "cell-based", "conditions": "plaque reduction and virus yields", "method": "The yield inhibition assay was performed as follows: HSV-1 was inoculated at a multiplicity of 0.5 pfu per GMK cell in the presence of the respective peptide at concentrations of 250 and 25 μg/ml. Virus adsorption was performed for 60 min. at room temperature. The cells were then rinsed five times with Hanks' Balanced Salt Solution (BSS) and incubated in a 5% CO2 atmosphere at 37° C. with maintenance medium containing either peptides or acyclovir, according to the methods described in \"Proceedings of a Symposium on Acyclovir\", The American Journal of Medicine, Jul. 20, (1982) which is incorporated herein by reference, or without any additives. Twenty-four hours p.i. the cells were freeze-thawed, scraped into the medium and tested for virus yield by the infectivity assay as outlined in Example 2. The results are shown in Table 7 where the plaque reduction values are the mean of two cultures and the yield of HSV-1 after 24 hours is the mean of two determinations and the values are presented in millions of pfu/ml."}, "[2]": {"test": "Humoral anti-TNP antibody response in mice pretreated with Gly-Pro-Gly, ELISA endpoint titer", "format": "in vivo", "conditions": "5 mg/day/animal for 5 days", "method": "The effects of Gly-Pro-Gly on development of humoral specific antibody responses was examined in mice. For this purpose, Gly-Pro-Gly was administered in adult (4 weeks old, sex matched) Swiss albino outbred mice by intraperitoneal injections given daily for 5 consecutive days. The control group was not given Gly-Pro-Gly, whereas the second and third groups were given 0.5 mg and 5 mg Gly-Pro-Gly respectively. […]\nSerum antibody responses to the TNP group were monitored by the ELISA technique performed on serum samples collected 2 weeks after the second injection. […]\nELISA assays were performed as follows. […] TNP-reactive antibodies were then detected by stepwise addition of enzyme labelled goat antibodies to mouse IgG1, IgG2a, IgG2b, IgG3 or IgM (all obtained from Southern Biotechnology Associates, Birmingham, Ala.) and enzyme substrate. Results are expressed as endpoint titer, the latter being defined as the reciprocal of the highest dilution of serum giving an ELISA absorbance value equal to 3 times that of control wells exposed to buffer alone but not serum."}, "[3]": {"system": "normal T cells", "test": "In vitro proliferative response of normal T cells to mitogens, stimulation index", "format": "cell-based, human", "method": "The in vitro proliferative response of normal T cells was examined after concurrent exposure of unfractionated, and T cell enriched (CD4^+ or CD8^+ enriched using DYNABEADS M-450 CD4 and DYNABEADS M-450 CD, magnetic beads according to the manufacturer's instructions, DYNAL A. S. Oslo Norway).\nThe results are indicated as the stimulation index which is calculated as follows: the ratio between radioactive Thymidine incorporated in cell cultures exposed to mitogen alone or mitogen plus Gly-Pro-Gly divided by the radioactive Thymidine incorporated in identical cell cultures exposed to medium alone."}, "[4]": {"test": "In vivo toxicity: growth of mice given intraperitoneal Gly-Pro-Gly", "parameters": "Mean weight of mice: unit not given here", "text": "In an in vivo test of the toxicity of Gly-Pro-Gly, groups of mice were given intraperitoneal injections of the substance starting at an age of 6 days. FIG. 3 also graphically depicts the results. […] The peptides are thus nontoxic even when given in large doses."}, "[5]": {"system": "HTLV-111B/H9 New York", "test": "Infectivity assay HTLV-IIIB/H9 New York: p24 ELISA (absorbance 454 nm of diluted supernatant), syncytia, immunofluorescence", "format": "cell-based, HIV-1", "conditions": "for # OF SYNCYTIA/WELL Day 14 / PERCENTAGE OF AG POS CELLS / p24 1/10 / p24 1/100 / p24 1/1,000: Table 6; for HIV infection by p24 synthesis and syncytia formation, in words: Tables 3-6", "protocol": "Virus at 100 50% tissue culture infectious doses (TCID50) and peptides at concentrations of 250 and 25 μg/ml were added to the cells simultaneously and incubated for 2 hours at 4° C. with frequent stirring. Subsequently, the temperature was increased to 37° C. and the mixtures were subjected to a second incubation for 2 hours. Following the second incubation, the cells were centrifuged at 325 x g and washed once in RPMI medium (Gibco Laboratories, N.Y.). Cells, at a concentration of 5×10^5 /ml, were then added to 24 multidish well plates at a final volume of 1.5 ml of growth medium (RPMI supplemented with 10% fetal calf serum (FCS), antibiotics and polybrene (2 μg/ml)), with the addition of peptides at dilutions of 250 or 25 μg/ml. […] As additional controls, two HIV infected cell cultures (designated pos. controls 1 and 2, Tables 3-5) and two uninfected cell cultures (designated neg. controls 1 and 2) were used.\nInfected cells were continuously monitored for formation of syncytia and the growth medium supernatants were analyzed at days 9-12 p.i. for p24 antigen which is an indicator of HIV replication.\nBriefly, the following protocol was used for detection of the p24 antigen. HIV p24 antigen was determined using a rabbit anti-p24 polyclonal antiserum as capture antibody and a biotinylated rabbit anti-p24 polyclonal antibody was used as detecting antibody in an avidin-horse radish peroxidase (HRP) ELISA. The sensitivity of the assay allowed detection of approximately 50 pg of p24 antigen per ml supernatant. […] Serial dilutions of the supernatants were made so as to detect p24 concentration in the most accurate range (<2.0 absorbance units).\nThe number of infected cells were then determined by indirect immunofluorescence using a human HIV positive serum diluted 1/100 and FITC conjugated antihuman IgG (Bio Merieux, France) diluted 1/200.\nIn tables 3-6, the p24 content of the supernatants of infected cells was determined by diluting the supernatants of infected cells in serial tenfold dilutions (1/10, 1/100, 1/1000 and 1/10,000) and analyzing in ELISA as described above. Results are indicated by the absorbance values (454nm) of respective dilutions.\nIn tables 8 and 9, the p24 content of the supernatants of infected cells was determined by diluting the supernatants in serial tenfold dilutions (1/10, 1/100, 1/1,000) and analyzing by ELISA as described in Example 2. Results are indicated by the absorbance values (454 nm) of respective dilutions."}},
  "note": "Where a SMILES comes first, the peptide text is derived from it.",
  "data": [
    {"molecule": "Nc1nc2c(ncn2COCCO)c(=O)[nH]1", "note": "[Acyclovir, acyclovir]", "values": [
      {"measurement": "capacity of HSV-1 to replicate in GMK cells, in words", "setting": "[1]", "result": "significantly reduced"}
    ]},
    {"molecule": "NCC(=O)N1CCC[C@H]1C(=O)NCC(N)=O", "note": "[Gly-Pro-Gly] (H-Gly-Pro-Gly-NH2)", "values": [
      {"measurement": "humoral immune responsiveness of mice", "setting": "[2]", "result": "do not appreciably influence"},
      {"measurement": "direct anti-proliferative properties on T cells", "setting": "[3]; doses as high as 20 μM", "result": "marginal if any"},
      {"measurement": "effect on normal T cell and B cell functions", "setting": "[3]; in vitro human, in vivo murine", "result": "no effect"},
      {"measurement": "Mean weight of mice", "setting": "[4]; Feb. 25, 0.001 g GPG i.p.", "result": 5.66},
      {"measurement": "Mean weight of mice", "setting": "[4]; Feb. 25, 0.1 g GPG i.p.", "result": 4.98},
      {"measurement": "Mean weight of mice", "setting": "[4]; Feb. 25, 1 g GPG i.p.", "result": 5.62},
      {"measurement": "Mean weight of mice", "setting": "[4]; Feb. 26, 0.001 g GPG i.p.", "result": 6.24},
      {"measurement": "Mean weight of mice", "setting": "[4]; Feb. 26, 0.1 g GPG i.p.", "result": 5.54},
      {"measurement": "Mean weight of mice", "setting": "[4]; Feb. 26, 1 g GPG i.p.", "result": 6.27},
      {"measurement": "Mean weight of mice", "setting": "[4]; Feb. 27, 0.001 g GPG i.p.", "result": 6.76},
      {"measurement": "Mean weight of mice", "setting": "[4]; Feb. 27, 0.1 g GPG i.p.", "result": 6.41},
      {"measurement": "Mean weight of mice", "setting": "[4]; Feb. 27, 1 g GPG i.p.", "result": 7.04},
      {"measurement": "Mean weight of mice", "setting": "[4]; Feb. 28, 0.001 g GPG i.p.", "result": 7.40},
      {"measurement": "Mean weight of mice", "setting": "[4]; Feb. 28, 0.1 g GPG i.p.", "result": 7.11},
      {"measurement": "Mean weight of mice", "setting": "[4]; Feb. 28, 1 g GPG i.p.", "result": 7.80},
      {"measurement": "Mean weight of mice", "setting": "[4]; March 1, 0.001 g GPG i.p.", "result": 7.83},
      {"measurement": "Mean weight of mice", "setting": "[4]; March 1, 0.1 g GPG i.p.", "result": 8.00},
      {"measurement": "Mean weight of mice", "setting": "[4]; March 1, 1 g GPG i.p.", "result": 8.61},
      {"measurement": "Mean weight of mice", "setting": "[4]; March 4, 0.001 g GPG i.p.", "result": 9.22},
      {"measurement": "Mean weight of mice", "setting": "[4]; March 4, 0.1 g GPG i.p.", "result": 9.35},
      {"measurement": "Mean weight of mice", "setting": "[4]; March 4, 1 g GPG i.p.", "result": 10.53},
      {"measurement": "Mean weight of mice", "setting": "[4]; March 5, 0.001 g GPG i.p.", "result": 9.63},
      {"measurement": "Mean weight of mice", "setting": "[4]; March 5, 0.1 g GPG i.p.", "result": 10.04},
      {"measurement": "Mean weight of mice", "setting": "[4]; March 5, 1 g GPG i.p.", "result": 11.22},
      {"measurement": "Mean weight of mice", "setting": "[4]; March 6, 0.001 g GPG i.p.", "result": 9.88},
      {"measurement": "Mean weight of mice", "setting": "[4]; March 6, 0.1 g GPG i.p.", "result": 10.35},
      {"measurement": "Mean weight of mice", "setting": "[4]; March 6, 1 g GPG i.p.", "result": 11.44},
      {"measurement": "Mean weight of mice", "setting": "[4]; March 7, 0.001 g GPG i.p.", "result": 9.95},
      {"measurement": "Mean weight of mice", "setting": "[4]; March 7, 0.1 g GPG i.p.", "result": 11.17},
      {"measurement": "Mean weight of mice", "setting": "[4]; March 7, 1 g GPG i.p.", "result": 12.12},
      {"measurement": "Mean weight of mice", "setting": "[4]; March 8, 0.001 g GPG i.p.", "result": 10.30},
      {"measurement": "Mean weight of mice", "setting": "[4]; March 8, 0.1 g GPG i.p.", "result": 11.38},
      {"measurement": "Mean weight of mice", "setting": "[4]; March 8, 1 g GPG i.p.", "result": 12.69},
      {"measurement": "Mean weight of mice", "setting": "[4]; March 15, 0.001 g GPG i.p., no injections 3/8-3/15", "result": 16.59},
      {"measurement": "Mean weight of mice", "setting": "[4]; March 15, 0.1 g GPG i.p., no injections 3/8-3/15", "result": 17.46},
      {"measurement": "Mean weight of mice", "setting": "[4]; March 15, 1 g GPG i.p., no injections 3/8-3/15", "result": 19.85},
      {"measurement": "influence on the growth of mice", "setting": "[4]; compared with controls", "result": "no significant influence"}
    ]},
    {"molecule": "Gly-Pro-Ala", "values": [
      {"measurement": "# OF SYNCYTIA/WELL Day 14", "setting": "[5]; 25 μg/ml", "result": 85},
      {"measurement": "PERCENTAGE OF AG POS CELLS", "setting": "[5]; 25 μg/ml", "result": "30-40%"},
      {"measurement": "p24 1/10", "setting": "[5]; 25 μg/ml", "result": "> 2.0"},
      {"measurement": "p24 1/100", "setting": "[5]; 25 μg/ml", "result": 0.616},
      {"measurement": "p24 1/1,000", "setting": "[5]; 25 μg/ml", "result": 0.154},
      {"measurement": "# OF SYNCYTIA/WELL Day 14", "setting": "[5]; 250 μg/ml", "result": 20},
      {"measurement": "PERCENTAGE OF AG POS CELLS", "setting": "[5]; 250 μg/ml", "result": "20-30%"},
      {"measurement": "p24 1/10", "setting": "[5]; 250 μg/ml", "result": "> 2.0"},
      {"measurement": "p24 1/100", "setting": "[5]; 250 μg/ml", "result": 0.299},
      {"measurement": "p24 1/1,000", "setting": "[5]; 250 μg/ml", "result": 0.059},
      {"measurement": "HIV infection by p24 synthesis and syncytia formation, in words", "setting": "[5]", "result": "no inhibitory effect on HIV replication"}
    ]},
    {"molecule": "Gly-Pro-Gly-Gly (GPGG; printed: Gly-Pro-Gly-Gly)", "values": [
      {"measurement": "# OF SYNCYTIA/WELL Day 14", "setting": "[5]; 25 μg/ml", "result": 15},
      {"measurement": "PERCENTAGE OF AG POS CELLS", "setting": "[5]; 25 μg/ml", "result": "25-30%"},
      {"measurement": "p24 1/10", "setting": "[5]; 25 μg/ml", "result": 0.933},
      {"measurement": "p24 1/100", "setting": "[5]; 25 μg/ml", "result": 0.11},
      {"measurement": "p24 1/1,000", "setting": "[5]; 25 μg/ml", "result": 0.016},
      {"measurement": "# OF SYNCYTIA/WELL Day 14", "setting": "[5]; 250 μg/ml", "result": 20},
      {"measurement": "PERCENTAGE OF AG POS CELLS", "setting": "[5]; 250 μg/ml", "result": 30, "unit": "%"},
      {"measurement": "p24 1/10", "setting": "[5]; 250 μg/ml", "result": 0.523},
      {"measurement": "p24 1/100", "setting": "[5]; 250 μg/ml", "result": 0.052},
      {"measurement": "p24 1/1,000", "setting": "[5]; 250 μg/ml", "result": 0.007},
      {"measurement": "HIV infection by p24 synthesis and syncytia formation, in words", "setting": "[5]", "result": "no inhibitory effect on HIV replication"}
    ]}
  ]
}
